The record followed here is paper PMC9106008, “Design, Synthesis and Biological Evaluation of N-phenylindole Derivatives as Pks13 Inhibitors againstMycobacterium tuberculosis” (Molecules, 2022).

In one data set the test system is Mtb H37Rv strain. The experiment in a line: microplate alamar blue assay (MABA), MIC. The data set is classed as cell-based, Mycobacterium tuberculosis. To be noted: Mycobacterium tuberculosis, H37RV, lowest concentration leading to at least 90% inhibition of bacterial growth signal, average of three measurements, read-out: MIC. (In general: Resazurin is reduced to fluorescent resorufin, in cell work by metabolically active cells.)

Another data set deals with Pks13-TE (Mycobacterium tuberculosis, UniProt I6X8D2). The data set is described as follows: biochemical. The conditions noted are these: Pks13-TE 30 µM, 3% DMSO, average of three measurements. The data set is classed as binding.
The conditions of data set [1]: human, microsomes, 1 h, 0.1 µM, pH 7.4.
Another data set can be described thus: in vitro. To be noted: human, microsomes, pH 7.4.
Data set [2] can be described thus: liver microsome stability assay. The conditions noted are these: human, liver microsomes, pH 7.4. (In general: Liver microsomes are a subcellular fraction often used to study metabolism.)

In brackets after ≈: the same amount, converted by molar mass.

Sequence of Pks13-TE (I6X8D2 1451-1733): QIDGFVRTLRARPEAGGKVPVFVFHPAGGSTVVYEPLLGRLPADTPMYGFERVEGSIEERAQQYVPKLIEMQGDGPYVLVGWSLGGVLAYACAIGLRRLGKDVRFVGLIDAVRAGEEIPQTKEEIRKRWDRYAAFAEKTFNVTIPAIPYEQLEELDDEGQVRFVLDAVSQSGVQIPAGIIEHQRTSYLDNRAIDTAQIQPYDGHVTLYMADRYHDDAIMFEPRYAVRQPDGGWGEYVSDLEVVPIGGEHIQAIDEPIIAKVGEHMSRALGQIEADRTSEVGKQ

By MIC is commonly meant the lowest concentration found to suppress growth. The term ΔTm denotes the change in melting temperature against a reference sample. As a reminder, the CLint scaled is a measure of how fast metabolising enzymes remove a compound, apart from limits set by blood flow. A higher CLint scaled goes with faster metabolism. In general, microsomal CLint refers to the rate of metabolic loss divided by the concentration. By half-life is commonly meant the time in which the quantity being followed falls by half. Low readings indicate rapid decline, high ones slow decline. Turning to `CC(=O)c1c(C)n(-c2ccc(N3CCCCC3)cc2)c2ccc(O)c(CN3CCCCC3)c12` [Compound 48, 1-(5-hydroxy-2-methyl-1-(4-(piperidin-1-yl)phenyl)-4-(piperidin-1-ylmethyl)-1H-indol-3-yl) ethan-1-one], the MIC in the data set on Mtb H37Rv strain came out at 0.125 µg/mL (≈ 0.281 µM). Besides, at Pks13-TE (compound 150 µM (1:5)), the ΔTm at 150 µM amounted to 14.6 ± 0.04 °C. In addition, the shift in melting temperature (ΔTm) at 300 µM at Pks13-TE (compound 300 µM (1:10)) came out at 14 ± 0.01 °C. In addition, the “Remaining (T = 60 min)” value in data set [1] was 11.3%. In “in vitro”, the intrinsic metabolic clearance (CLint scaled) at 0.1 µM was determined as 60.2 mL/min/kg and the microsomal CLint at 0.1 µM was 66.9 µL/min/mg. In addition, the half-life at 0.1 µM in data set [2] was 20.7 min.
